Assay results reported in patent US11040223B2, “Compositions and methods related to xCT peptides” (AGILVAX, INC., priority 2015, dated 2021).

Columns and labels:
TUBO cells = assay: MTT in vitro cytotoxicity on TUBO cells; type: cell-based, mouse; conditions: 72 hours
Description: (§1) A MTT test was performed on TUBO cells and tumorspheres that had either been treated or not with scalar doses of xCT inhibitor SASP. […] On the contrary, xCT overexpression increases colony generating ability, as confirmed by the higher number of colonies generated in soft agar by NIH/3T3 and HEK-293 cells transfected with xCT when compared with the corresponding cells transfected with empty plasmids.
(§2) Twenty-four hours after TUBO cells and tumorspheres seeding in 96-well plates, scalar doses of doxorubicin or sulfasalazine (SASP; Sigma-Aldrich) were added and incubated at 37° C. for 72 hours. Cytotoxicity was evaluated with MTT using the Cell Proliferation Kit I (Roche Diagnostics).

[1] = test system: TUBO-derived tumorspheres; assay: Growth of s.c. tumors from TUBO-derived tumorspheres in vaccinated BALB/c mice; conditions: treated at 2 mm mean diameter, repeated the week later
Description: TUBO-derived tumorspheres were s.c. implanted into BALB/c mice that were vaccinated when tumors reached 2 or 4 mm mean diameter to evaluate whether xCT immune-targeting hinders breast cancer growth (FIG. 6A-6D).
Female 6- to 8-week-old wild-type (Charles River Laboratories) and Ig μ-chain gene knocked out (BALB-μIgKO) BALB/c mice were maintained at the Molecular Biotechnology Center, University of Torin, and treated in accordance with the University Ethical Committee and European guidelines under Directive 2010/63. Vaccination, performed either before or after tumor challenge, consisted of two intramuscular electroporations at 2 weeks interval, of pVAX1 or pVAX1-xCT plasmids.
Primary s.c. tumors were induced by injecting 1×10^4 TUBO or 4T1 tumorsphere-derived cells.

[2] = test system: HCC-1806 derived tumorspheres; assay: FACS binding of immune sera from VLP immunized mice to tumorspheres; type: cell-based, human; conditions: sera (1:50) of mice immunized with VLPs 3 times at 2 week intervals; passage 2 HCC-1806 tumorspheres
Description: FIG. 1A-1B. xCT VLPs elicit antibodies that bind to tumorspheres. Immune sera (1:50) from xCT or control (MS2) VLP immunized mice were incubated with HCC-1806 derived tumorspheres. A FITC conjugated anti mouse IgG was used to detect sera antibodies bound to the cells. (A) FACS analysis of the percentage of tumorsphere cells that bound to the immune sera. As a positive control for xCT binding, we used a commercially available xCT polyclonal antibody. (B) Immunofluorescence analysis showing antibody binding to a tumorsphere from an xCT ECD 6 immunized mouse. Cell nuclei are stained with DAPI.
To determine if xCT VLP vaccination generated antibodies that could bind to breast cancer stem cells, sera from animals immunized with VLPs 3 times at 2 week intervals were incubated with passage 2 tumorspheres from the human cell line HCC-1806.

tumorspheres = assay: Tumorsphere generation after SASP or xCT siRNAs; type: cell-based, mouse; conditions: spheres counted 5 days later (SASP)
Description: FIG. 4A-4H. xCT regulates CSC self-renewal and the intracellular redox balance. A and B, MTT assay of the cytotoxic effect exerted by scalar doses of SASP or by anti-xCT siRNAs on TUBO (A) and tumorspheres (B). (C) Sphere generation ability relative to untreated cells of tumorspheres incubated with SASP. (D) Sphere generation ability of tumorspheres incubated with siRNAs to xCT, scrambled siRNAs, or not at all shown as tumorsphere number/10^3 plated cells. (E) and (F) FACS analysis of xCT and CSC marker expression in spheres 24 hours after transfection with siRNAs to xCT or scrambled siRNAs. (E) histograms show xCT expression; open histograms show the background of negative control IgG stained cells from one representative experiment. (F) relative expression (%) of xCT^+, Sca-1^+, and CD44^high/CD24^low cells in tumorsphere-derived cells transfected with siRNAs to xCT (black bars) compared with cells transfected with scrambled siRNAs (dashed line). G and H, GSH (G) and ROS (H) levels in TUBO cells and their derived tumorspheres after either seeding in normal conditions, transfection with siRNAs to xCT, or scrambled siRNAs over three independent experiments. *, P<0.05; **, P<0.01;***, P<0.001, Student t test. […]
Dissociated tumorspheres were cultured with scalar doses of SASP or its diluent DMSO (Sigma-Aldrich), and the total number of tumorspheres/well was counted 5 days later.

xCT = molecular target: T1, xCT (Homo sapiens, UniProt Q9UPY5); conditions: animal models; cited from earlier work
T1 sequence (Q9UPY5 1-501): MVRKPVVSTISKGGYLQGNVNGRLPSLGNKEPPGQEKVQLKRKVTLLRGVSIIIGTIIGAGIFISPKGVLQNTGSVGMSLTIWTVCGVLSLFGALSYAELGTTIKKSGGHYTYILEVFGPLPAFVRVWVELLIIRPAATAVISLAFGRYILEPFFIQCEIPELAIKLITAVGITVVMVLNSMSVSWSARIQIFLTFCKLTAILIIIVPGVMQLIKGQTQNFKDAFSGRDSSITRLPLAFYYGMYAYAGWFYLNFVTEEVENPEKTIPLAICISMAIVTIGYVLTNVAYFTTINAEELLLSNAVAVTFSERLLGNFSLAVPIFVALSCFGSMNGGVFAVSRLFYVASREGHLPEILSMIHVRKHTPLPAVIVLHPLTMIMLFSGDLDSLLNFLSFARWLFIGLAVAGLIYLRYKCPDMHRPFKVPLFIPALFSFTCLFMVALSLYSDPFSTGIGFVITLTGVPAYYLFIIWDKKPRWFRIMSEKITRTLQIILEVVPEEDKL
T1 sequence (P08195 1-529 partner): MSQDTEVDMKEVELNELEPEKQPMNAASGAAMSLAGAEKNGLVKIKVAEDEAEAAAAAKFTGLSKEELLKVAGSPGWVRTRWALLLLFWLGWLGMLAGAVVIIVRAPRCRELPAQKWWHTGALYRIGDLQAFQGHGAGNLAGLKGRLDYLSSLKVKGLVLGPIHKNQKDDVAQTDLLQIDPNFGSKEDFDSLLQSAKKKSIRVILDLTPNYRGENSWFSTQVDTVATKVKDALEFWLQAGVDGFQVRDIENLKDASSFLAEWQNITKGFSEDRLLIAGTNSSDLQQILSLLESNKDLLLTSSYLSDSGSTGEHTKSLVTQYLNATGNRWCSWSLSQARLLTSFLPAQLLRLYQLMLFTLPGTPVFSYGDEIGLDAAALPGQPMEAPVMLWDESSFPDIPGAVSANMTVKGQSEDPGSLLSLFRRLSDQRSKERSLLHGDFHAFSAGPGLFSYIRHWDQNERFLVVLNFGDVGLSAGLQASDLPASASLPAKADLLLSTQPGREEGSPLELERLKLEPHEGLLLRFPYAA

[3] = test system: TUBO-derived tumorspheres; assay: MTT in vitro cytotoxicity on tumorspheres; type: cell-based; conditions: Mus musculus, 72 hours, read-out: IC50, tumorsphere viability (MTT)
Description: as §1, §2

[4] = physiological conditions; cited from earlier work
[5] = in vivo; cited from earlier work
[6] = test system: mouse tubo-derived tumorspheres; assay: Lung metastases in VLP immunized mice injected i.v. with tumorspheres; type: in vivo; conditions: 5×10^4 tumorspheres i.v., lungs 20 days later, vs MS2 control VLPs
Description: FIG. 2. […] Mice immunized with xCT or MS2 control VLPs were injected (i.v) with 5×10^4 mouse tubo-derived tumorspheres. 20 days later, animals were euthanized and lungs were removed, section and the number of metastatic foci were measured. The number of mice were MS2 (n=2), xCT ECD3 (n=5), xCT ECD5 (n=5) and xCT ECD6 (n=4). Metastatic lesions were counted from two lung sections per animal. Data presented is the average number of lesions per slide. Two-tailed student t test was used to determine significance. ** indicates a p-value <0.01.
Inhibition of xCT function by a […] vaccine inhibits the number of metastatic lesions in the lung by 40% in a well characterized breast cancer stem cell transplantation model.

COc1cccc2c1C(=O)c1c(O)c3c(c(O)c1C2=O)C[C@@](O)(C(=O)CO)C[C@@H]3O[C@H]1C[C@H](N)[C@H](O)[C@H](C)O1 [doxorubicin]
sensitivity of TUBO cells compared with tumorspheres (MTT) (TUBO cells; scalar doses): higher sensitivity | mice with tumor regression [1]: 25%

xCT ECD3: MS2 VLP displaying extracellular domain 3 of human xCT in the AB loop of the coat protein (MQLIKGQTQNFKDAFSGRDSSITR; displayed on MS2 VLP coat protein AB loop; listed as Homo sapiens)
antibody response: immune sera antibodies binding to tumorspheres by FACS [2]: generated antibodies against xCT that were able to bind to human breast cancer cells as well as a commercially available xCT antibody

O=C(O)c1cc(/N=N/c2ccc(S(=O)(=O)Nc3ccccn3)cc2)ccc1O [SASP, sulfasalazine]
tumorsphere generation (tumorspheres): impaired tumorsphere generation | metastatic foci (xCT): significant decreases in metastatic foci | IC50 [3]: 51.6 ± 3.5 µM | stability and solubility [4]: labile and insoluble under physiological conditions | IC50 (TUBO cells; Mus musculus, TUBO cells, read-out: IC50, cell viability (MTT)): 126 ± 25.7 µM | bioavailability [5]: low bioavailability

xCT ECD6: MS2 VLP displaying extracellular domain 6 of human xCT in the AB loop of the coat protein (YSDPFS; displayed on MS2 VLP coat protein AB loop; listed as Homo sapiens)
antibody response: immune sera antibodies binding to tumorspheres by FACS [2]: generated antibodies against xCT that were able to bind to human breast cancer cells as well as a commercially available xCT antibody | reduction of the number of metastases in the lung [6]: ~60%
